Laboratory results as given in patent US7696379B2, “Acetylene derivatives” (Novartis AG, priority 2005, dated 2010).

Experiments:
hmGluR5 = target: T1, hmGluR5 (Homo sapiens, UniProt P41594); assay: inhibition of agonist induced inositol phosphate turnover in hmGluR5 expressing cells; format: cell-based; settings: read-out: IC50 concentration, inhibition of quinqualate-induced inositol phosphate turnover
T1 construct: expressed in transfected cells
Description: This can be determined in vitro for example at recombinant human metabotropic glutamate receptors, especially PLC-coupled subtypes thereof such as mGluR5, using different procedures like, for example, measurement of the inhibition of the agonist induced elevation of intracellular Ca^2+ concentration in accordance with L. P. Daggett et al., Neuropharm. Vol. 34, pages 871-886 (1995), P. J. Flor et al., J. Neurochem. Vol. 67, pages 58-63 (1996) or by determination to what extent the agonist induced elevation of the inositol phosphate turnover is inhibited as described by T. Knoepfel et al., Eur. J. Pharmacol. Vol. 288, pages 389-392 (1994), L. P. Daggett et al., Neuropharm. Vol. 67, pages 58-63 (1996) and references cited therein. Isolation and expression of human mGluR subtypes are described in U.S. Pat. No. 5,521,297. Selected agents of the invention show IC50 values for the inhibition of the agonist (e.g. glutamate or quisqualate) induced elevation of intracellular Ca2+ concentration or the agonist (e.g. glutamate or quisqualate) induced inositol phosphate turnover, measured in recombinant cells expressing hmGluR5a of about 1 nM to about 50 μM.

[1] = system: stress-induced hyperthermia in mice; assay: stress-induced hyperthermia in mice; format: in vivo; settings: control hyperthermia 0.82+/−0.1° C.
Procedure: A. Lecci et al., Psychopharmacol. 101, 255-261]. At doses of about 0.1 to about 30 mg/kg p.o., selected agents of the invention reverse the stress-induced hyperthermia.
With Furan-3-carboxylic acid [(1R,3R)-3-(3-chloro-phenylethynyl)-3-hydroxy-cyclohexyl]-amide, a stress-induced hyperthermia of 0.82+/−0.1° C. was reduced to 0.37+/−0.10° C. at 3 mg/kg p.o., to 0.02+/−0.08° C. at 10 mg/kg p.o. and to −0.49+/−0.12° C. at 30 mg/kg p.o. (p<0.01; p<0.001; p<0.001 respectively).

T1 sequence (P41594 21-1180 isoform P41594-2 limits assumed): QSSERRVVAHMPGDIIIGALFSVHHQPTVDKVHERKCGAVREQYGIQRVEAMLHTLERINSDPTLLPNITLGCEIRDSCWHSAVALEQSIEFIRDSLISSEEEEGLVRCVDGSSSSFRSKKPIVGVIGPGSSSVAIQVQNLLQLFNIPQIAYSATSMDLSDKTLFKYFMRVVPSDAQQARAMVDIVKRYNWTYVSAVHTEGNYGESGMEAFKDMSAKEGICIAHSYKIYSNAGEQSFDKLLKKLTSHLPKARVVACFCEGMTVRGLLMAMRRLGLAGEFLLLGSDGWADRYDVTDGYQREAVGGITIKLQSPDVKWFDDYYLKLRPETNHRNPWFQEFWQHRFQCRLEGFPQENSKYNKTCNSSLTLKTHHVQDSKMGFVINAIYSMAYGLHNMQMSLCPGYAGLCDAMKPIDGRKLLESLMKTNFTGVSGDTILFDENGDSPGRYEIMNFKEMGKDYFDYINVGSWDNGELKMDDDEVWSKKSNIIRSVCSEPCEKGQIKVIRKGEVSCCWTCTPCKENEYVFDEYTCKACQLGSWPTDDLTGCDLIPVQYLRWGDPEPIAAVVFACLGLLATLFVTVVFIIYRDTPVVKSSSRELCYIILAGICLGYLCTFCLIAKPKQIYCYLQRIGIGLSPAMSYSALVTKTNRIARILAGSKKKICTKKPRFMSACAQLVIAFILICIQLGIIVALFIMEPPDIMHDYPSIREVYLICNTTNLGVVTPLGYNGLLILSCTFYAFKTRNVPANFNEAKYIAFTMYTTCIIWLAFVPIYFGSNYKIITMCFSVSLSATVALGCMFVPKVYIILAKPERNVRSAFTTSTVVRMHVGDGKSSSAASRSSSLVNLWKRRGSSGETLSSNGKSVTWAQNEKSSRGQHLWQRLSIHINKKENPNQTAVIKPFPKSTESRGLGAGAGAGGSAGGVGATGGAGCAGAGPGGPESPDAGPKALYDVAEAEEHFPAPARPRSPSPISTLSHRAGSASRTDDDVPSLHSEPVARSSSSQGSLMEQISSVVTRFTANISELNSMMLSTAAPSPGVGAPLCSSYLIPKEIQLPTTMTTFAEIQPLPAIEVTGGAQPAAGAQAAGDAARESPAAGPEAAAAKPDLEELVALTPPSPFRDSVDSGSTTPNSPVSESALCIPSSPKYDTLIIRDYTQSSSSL

Row | Structure (SMILES) | melting point [°C] | further results
1 | Cc1cccc(C#C[C@@]2(O)CCC[C@@H](NC(=O)c3ccoc3)C2)c1 (racemic) [Example 1.19, Furan-3-carboxylic acid ((±)-(1R,3R)-3-hydroxy-3-m-tolylethynyl-cyclohexyl)-amide] | 135 to 138 | 
2 | O=C(N[C@@H]1CCC[C@](O)(C#Cc2cccc(F)c2)C1)c1cnc[nH]1 (racemic) [Example 1.37, 3H-Imidazole-4-carboxylic acid [(±)-(1R,3R)-3-(3-fluoro-phenylethynyl)-3-hydroxy-cyclohexyl]-amide] | 190 to 191 | 
3 | O=C(N[C@@H]1CCC[C@](O)(C#Cc2cccc(Cl)c2)C1)c1ccoc1 [Example 1, Furan-3-carboxylic acid [(1R,3R)-3-(3-chloro-phenylethynyl)-3-hydroxy-cyclohexyl]-amide] |  | IC50 (hmGluR5): 0.028 µM; stress-induced hyperthermia ([1]; 3 mg/kg p.o., p<0.01): 0.37+/−0.10 °C; stress-induced hyperthermia ([1]; 10 mg/kg p.o., p<0.001): 0.02+/−0.08 °C; stress-induced hyperthermia ([1]; 30 mg/kg p.o., p<0.001): −0.49+/−0.12 °C
4 | Cc1cccc(C#C[C@@]2(O)CCC[C@@H](NC(=O)c3ccco3)C2)c1 [Example 1.20, Furan-2-carboxylic acid ((1R,3R)-3-hydroxy-3-m-tolylethynyl-cyclohexyl)-amide] | 139 to 142 | 
5 | Cc1cccc(C#C[C@]2(O)CCC[C@H](NC(=O)c3ccco3)C2)c1 [Example 1.21, Furan-2-carboxylic acid ((1S,3S)-3-hydroxy-3-m-tolylethynyl-cyclohexyl)-amide] | 139 to 140 | 
